Reference: ChEMBL document CHEMBL4665624, “Synthesis of 5-(4-(1H-phenanthro[9,10-d]imidazol-2-yl)benzylidene)thiazolidine-2,4-dione as promising DNA and serum albumin-binding agents and evaluation of antitumor activity” (Eur J Med Chem, 2019)

Experiments:
[1] = tested on: EKVX; experiment: Antitumor activity against human EKVX cells assessed as cell growth inhibition at 10 uM incubated for 48 hrs by sulforhodamine B assay; type: functional; conditions: read-out: GI
[2] = tested on: OVCAR-4; experiment: Antitumor activity against human OVCAR-4 cells assessed as cell growth inhibition at 10 uM incubated for 48 hrs by sulforhodamine B assay; type: functional; conditions: read-out: GI
[3] = tested on: SNB-75; experiment: Antitumor activity against human SNB-75 cells assessed as cell growth inhibition at 10 uM incubated for 48 hrs by sulforhodamine B assay; type: functional; conditions: read-out: GI
[4] = tested on: MDA-MB-435; experiment: Antitumor activity against human MDA-MB-435 cells assessed as cell growth inhibition at 10 uM incubated for 48 hrs by sulforhodamine B assay; type: functional; conditions: read-out: GI
[5] = tested on: U-251; experiment: Antitumor activity against human U251 cells assessed as cell growth inhibition at 10 uM incubated for 48 hrs by sulforhodamine B assay; type: functional; conditions: read-out: GI
[6] = tested on: IGROV-1; experiment: Antitumor activity against human IGROV1 cells assessed as cell growth inhibition at 10 uM incubated for 48 hrs by sulforhodamine B assay; type: functional; conditions: read-out: GI
[7] = tested on: NCI-H522; experiment: Antitumor activity against human NCI-H522 cells assessed as cell growth inhibition at 10 uM incubated for 48 hrs by sulforhodamine B assay; type: functional; conditions: read-out: GI
[8] = tested on: SF-268; experiment: Antitumor activity against human SF268 cells assessed as cell growth inhibition at 10 uM incubated for 48 hrs by sulforhodamine B assay; type: functional; conditions: read-out: GI
[9] = tested on: Malme-3M; experiment: Antitumor activity against human MALME-3M cells assessed as cell growth inhibition at 10 uM incubated for 48 hrs by sulforhodamine B assay; type: functional; conditions: read-out: GI
[10] = tested on: SK-MEL-28; experiment: Antitumor activity against human SK-MEL-28 cells assessed as cell growth inhibition at 10 uM incubated for 48 hrs by sulforhodamine B assay; type: functional; conditions: read-out: GI
[11] = tested on: SW-620; experiment: Antitumor activity against human SW620 cells assessed as cell growth inhibition at 10 uM incubated for 48 hrs by sulforhodamine B assay; conditions: SW-620, 48 h, read-out: GI
[12] = tested on: SF-295; experiment: Antitumor activity against human SF295 cells assessed as cell growth inhibition at 10 uM incubated for 48 hrs by sulforhodamine B assay; type: functional; conditions: read-out: GI
[13] = tested on: HCT-15; experiment: Antitumor activity against human HCT15 cells assessed as cell growth inhibition at 10 uM incubated for 48 hrs by sulforhodamine B assay; type: functional; conditions: read-out: GI
[14] = tested on: BT-549; experiment: Antitumor activity against human BT-549 cells assessed as cell growth inhibition at 10 uM incubated for 48 hrs by sulforhodamine B assay; type: functional; conditions: read-out: GI
[15] = tested on: 786-0; experiment: Antitumor activity against human 786-0 cells assessed as cell growth inhibition at 10 uM incubated for 48 hrs by sulforhodamine B assay; type: functional; conditions: read-out: GI
[16] = tested on: CCRF-CEM; experiment: Antitumor activity against human CCRF-CEM cells assessed as cell growth inhibition at 10 uM incubated for 48 hrs by sulforhodamine B assay; type: functional; conditions: read-out: GI
[17] = tested on: NCI-H460; experiment: Antitumor activity against human NCI-H460 assessed as cell growth inhibition at 10 uM incubated for 48 hrs by sulforhodamine B assay; type: functional; conditions: read-out: GI
[18] = tested on: MDA-MB-468; experiment: Antitumor activity against human MDA-MB-468 cells assessed as cell growth inhibition at 10 uM incubated for 48 hrs by sulforhodamine B assay; type: functional; conditions: read-out: GI
[19] = tested on: OVCAR-3; experiment: Antitumor activity against human OVCAR-3 cells assessed as cell growth inhibition at 10 uM incubated for 48 hrs by sulforhodamine B assay; type: functional; conditions: read-out: GI
[20] = tested on: MOLT-4; experiment: Antitumor activity against human MOLT4 cells assessed as cell growth inhibition at 10 uM incubated for 48 hrs by sulforhodamine B assay; type: functional; conditions: read-out: GI
[21] = tested on: UO-31; experiment: Antitumor activity against human UO-31 cells assessed as cell growth inhibition at 10 uM incubated for 48 hrs by sulforhodamine B assay; type: functional; conditions: read-out: GI
[22] = tested on: SK-OV-3; experiment: Antitumor activity against human SK-OV-3 cells assessed as cell growth inhibition at 10 uM incubated for 48 hrs by sulforhodamine B assay; type: functional; conditions: read-out: GI
[23] = tested on: M14; experiment: Antitumor activity against human M14 cells assessed as cell growth inhibition at 10 uM incubated for 48 hrs by sulforhodamine B assay; type: functional; conditions: read-out: GI
[24] = tested on: K562; experiment: Antitumor activity against human K562 cells assessed as cell growth inhibition at 10 uM incubated for 48 hrs by sulforhodamine B assay; type: functional; conditions: read-out: GI
[25] = tested on: SN12C; experiment: Antitumor activity against human SN12C cells assessed as cell growth inhibition at 10 uM incubated for 48 hrs by sulforhodamine B assay; type: functional; conditions: read-out: GI
[26] = tested on: LOX IMVI; experiment: Antitumor activity against human LOX IMVI cells assessed as cell growth inhibition at 10 uM incubated for 48 hrs by sulforhodamine B assay; type: functional; conditions: read-out: GI
[27] = tested on: COLO 205; experiment: Antitumor activity against human COLO205 cells assessed as cell growth inhibition at 10 uM incubated for 48 hrs by sulforhodamine B assay; type: functional; conditions: read-out: GI
[28] = tested on: NCI-H226; experiment: Antitumor activity against human NCI-H226 assessed as cell growth inhibition at 10 uM incubated for 48 hrs by sulforhodamine B assay; type: functional; conditions: read-out: GI
[29] = tested on: HOP-92; experiment: Antitumor activity against human HOP92 cells assessed as cell growth inhibition at 10 uM incubated for 48 hrs by sulforhodamine B assay; type: functional; conditions: read-out: GI
[30] = tested on: NCI-H23; experiment: Antitumor activity against human NCI-H23 cells assessed as cell growth inhibition at 10 uM incubated for 48 hrs by sulforhodamine B assay; type: functional; conditions: read-out: GI
[31] = tested on: MDA-MB-231; experiment: Antitumor activity against human MDA-MB-231/ATCC cells assessed as cell growth inhibition at 10 uM incubated for 48 hrs by sulforhodamine B assay; type: functional; conditions: read-out: GI
[32] = tested on: HT-29; experiment: Antitumor activity against human HT-29 cells assessed as cell growth inhibition at 10 uM incubated for 48 hrs by sulforhodamine B assay; type: functional; conditions: read-out: GI
[33] = tested on: RXF 393; experiment: Antitumor activity against human RXF 393 cells assessed as cell growth inhibition at 10 uM incubated for 48 hrs by sulforhodamine B assay; type: functional; conditions: read-out: GI
[34] = tested on: Hs-578T; experiment: Antitumor activity against human HS 578T cells assessed as cell growth inhibition at 10 uM incubated for 48 hrs by sulforhodamine B assay; type: functional; conditions: read-out: GI
[35] = tested on: SNB-19; experiment: Antitumor activity against human SNB-19 cells assessed as cell growth inhibition at 10 uM incubated for 48 hrs by sulforhodamine B assay; type: functional; conditions: read-out: GI
[36] = tested on: NCI/ADR-RES; experiment: Antitumor activity against human NCI/ADR-RES cells assessed as cell growth inhibition at 10 uM incubated for 48 hrs by sulforhodamine B assay; type: functional; conditions: read-out: GI
[37] = tested on: KM12; experiment: Antitumor activity against human KM12 cells assessed as cell growth inhibition at 10 uM incubated for 48 hrs by sulforhodamine B assay; type: functional; conditions: read-out: GI
[38] = tested on: ACHN; experiment: Antitumor activity against human ACHN cells assessed as cell growth inhibition at 10 uM incubated for 48 hrs by sulforhodamine B assay; type: functional; conditions: read-out: GI
[39] = tested on: MCF7; experiment: Antitumor activity against human MCF7 cells assessed as cell growth inhibition at 10 uM incubated for 48 hrs by sulforhodamine B assay; type: functional; conditions: read-out: GI
[40] = tested on: OVCAR-8; experiment: Antitumor activity against human OVCAR-8 cells assessed as cell growth inhibition at 10 uM incubated for 48 hrs by sulforhodamine B assay; type: functional; conditions: read-out: GI
[41] = tested on: HCC 2998; experiment: Antitumor activity against human HCC2998 cells assessed as cell growth inhibition at 10 uM incubated for 48 hrs by sulforhodamine B assay; type: functional; conditions: read-out: GI
[42] = tested on: HCT-116; experiment: Antitumor activity against human HCT116 cells assessed as cell growth inhibition at 10 uM incubated for 48 hrs by sulforhodamine B assay; type: functional; conditions: read-out: GI
[43] = tested on: UACC-62; experiment: Antitumor activity against human UACC-62 cells assessed as cell growth inhibition at 10 uM incubated for 48 hrs by sulforhodamine B assay; type: functional; conditions: read-out: GI
[44] = tested on: SR; experiment: Antitumor activity against human SR cells assessed as cell growth inhibition at 10 uM incubated for 48 hrs by sulforhodamine B assay; type: functional; conditions: read-out: GI
[45] = tested on: HL-60(TB); experiment: Antitumor activity against human HL-60(TB) cells assessed as cell growth inhibition at 10 uM incubated for 48 hrs by sulforhodamine B assay; type: functional; conditions: read-out: GI
[46] = tested on: PC-3; experiment: Antitumor activity against human PC-3 cells assessed as cell growth inhibition at 10 uM incubated for 48 hrs by sulforhodamine B assay; type: functional; conditions: read-out: GI
[47] = tested on: RPMI-8226; experiment: Antitumor activity against human RPMI8226 cells assessed as cell growth inhibition at 10 uM incubated for 48 hrs by sulforhodamine B assay; type: functional; conditions: read-out: GI
[48] = tested on: A498; experiment: Antitumor activity against human A498 cells assessed as cell growth inhibition at 10 uM incubated for 48 hrs by sulforhodamine B assay; type: functional; conditions: read-out: GI

## O=Cc1ccc(-c2nc3c([nH]2)-c2cccc4cccc-3c24)cc1
[1]
  inhibition of growth at 10 µM: 23%
[2]
  inhibition of growth at 10 µM: 27.4%
[3]
  inhibition of growth at 10 µM: < 10%
[4]
  inhibition of growth at 10 µM: < 10%
[5]
  inhibition of growth at 10 µM: < 10%
[6]
  inhibition of growth at 10 µM: 28.9%
[7]
  inhibition of growth at 10 µM: < 10%
[8]
  inhibition of growth at 10 µM: 13.3%
[9]
  inhibition of growth at 10 µM: < 10%
[10]
  inhibition of growth at 10 µM: < 10%
[11]
  inhibition of growth at 10 µM: < 10%
[12]
  inhibition of growth at 10 µM: < 10%
[13]
  inhibition of growth at 10 µM: 23.7%
[14]
  inhibition of growth at 10 µM: < 10%
[15]
  inhibition of growth at 10 µM: < 10%
[16]
  inhibition of growth at 10 µM: 11.1%
[17]
  inhibition of growth at 10 µM: 23.6%
[18]
  inhibition of growth at 10 µM: 30.9%
[19]
  inhibition of growth at 10 µM: 12.3%
[20]
  inhibition of growth at 10 µM: 20.5%
[21]
  inhibition of growth at 10 µM: 33.4%
[22]
  inhibition of growth at 10 µM: < 10%
[23]
  inhibition of growth at 10 µM: < 10%
[24]
  inhibition of growth at 10 µM: 16.5%
[25]
  inhibition of growth at 10 µM: < 10%
[26]
  inhibition of growth at 10 µM: 25.8%
[27]
  inhibition of growth at 10 µM: < 10%
[28]
  inhibition of growth at 10 µM: 12.4%
[29]
  inhibition of growth at 10 µM: 14%
[30]
  inhibition of growth at 10 µM: 14.9%
[31]
  inhibition of growth at 10 µM: 25.6%
[32]
  inhibition of growth at 10 µM: < 10%
[33]
  inhibition of growth at 10 µM: < 10%
[34]
  inhibition of growth at 10 µM: < 10%
[35]
  inhibition of growth at 10 µM: < 10%
[36]
  inhibition of growth at 10 µM: < 10%
[37]
  inhibition of growth at 10 µM: 13%
[38]
  inhibition of growth at 10 µM: < 10%
[39]
  inhibition of growth at 10 µM: 51.6%
[40]
  inhibition of growth at 10 µM: < 10%
[41]
  inhibition of growth at 10 µM: 12.8%
[42]
  inhibition of growth at 10 µM: 19.2%
[43]
  inhibition of growth at 10 µM: 19.8%
[44]
  inhibition of growth at 10 µM: 16%
[45]
  inhibition of growth at 10 µM: < 10%
[46]
  inhibition of growth at 10 µM: 21.1%
[47]
  inhibition of growth at 10 µM: 22.8%
[48]
  inhibition of growth at 10 µM: < 10%
